Assay results as given in patent US11702428B2, “Chemical compounds as inhibitors of interleukin-1 activity” (Genentech, Inc., priority 2017, dated 2023).
“Also recorded” adds a separate entry of the source. Where two headings read alike, the source gives them in different places.

Columns and labels:
[1] = test system: LPS and nigericin stimulated cells; assay: cells; assay type: cell-based; details: Homo sapiens, read-out: CTG protective IC50
Protocol: Viability of compound treated cells is measured using CellTiter-Glo® assay (Promega, Madison, Wis.) that measures the ATP content of cells which is proportional to the number of live cells within a well. This is a counter-screen to establish that the reduction of IL-1β levels in LPS and nigericin stimulated and compound treated cells is not due to cytotoxicity, but rather through the inhibition of the inflammasome pathway. Compounds inhibiting NRLP3 inflammasome activation ultimately increase the viability of LPS and nigericin stimulated cells by blocking NLRP3 mediated pyroptosis that would otherwise lead to cell lysis.

TNFα = TNFα levels of LPS and nigericin stimulated cells (counter-screen); assay type: cell-based, human
Protocol: (§1) For ELISA assays cells were seeded into 96-well plates. Post study, supernatants were removed and the levels of mature IL-1β, IL-18 and TNFα (Quantikine ELISA, R&D systems) were measured in cell conditioned media by ELISA according to manufacturer's instructions.
TNFα levels of LPS and nigericin stimulated cells is measured by HTRF assay (Cisbio, Bedford, Mass.). […] Measuring TNFalpha production also serves as a technical counter-screen to eliminate compounds that interfere with the HTRF reagents. Thus compounds that inhibit both IL-1β and TNFα levels are triaged for either being non-selective for inflammasome or interfering with the HTRF readout.

[2] = Human microsomal stability (Eh); assay type: in vitro ADME; details: hepatic extraction ratio; 0.5 mg/mL microsomal protein, 1 μM, NADPH; liver blood flow 20.7 mL/min/kg
Protocol: The stock solutions of test article and positive control were prepared at a concentration of 10 mM using DMSO as diluents. All stock solutions were then diluted to working concentrations at 0.25 mM with 70% acetonitrile. The cofactor used in this study was NADPH regenerating system, that was composed of 6.5 mM NADP, 16.5 mM G-6-P, 3 U/mL G-6-P D. The quench reagent was consisted of acetonitrile containing tolbutamide and propanolol (serve as internal standard). Incubation mixtures containing 0.5 mg/mL liver microsomal protein and […] test article/positive control in 100 mM potassium phosphate buffer.
The 0-minute samples were prepared by addition of an 80 μL aliquot of each incubation mixture to 300 μL quench reagent to precipitate proteins. The samples were vortexed, and then a 20 μL aliquot of the NADPH regenerating system was added in. The reaction was initiated by addition of 80 μL of the NADPH regenerating system to 320 μL of each incubation mixture. The final incubation conditions achieved in 400 μL are: 0.5 mg/mL microsomal protein, 1 μM test article/positive control, 1.3 mM NADP, 3.3 mM glucose 6 phosphate, 0.6 U/mL glucose 6 phosphate dehydrogenase. The mixtures were incubated in a 37° C. water bath with gentle shaking. A 100 μL aliquot of each mixture was removed at 10, 30, 90 minutes to a clean 96-well plate which contains 300 μL quench reagent to precipitate proteins, and centrifuged (4000×g, 10 min). 80 μL of supernatant are taken into 96-well assay plates pre-added with 160 μL ultrapure water, and then analyzed by LC-MS/MS. Hepatic extraction ratio (Eh) values were calculated from measured in vitro clearance assuming a human liver blood flow of 20.7 mL/min/kg. Eh values of <0.3 are indicative of compounds with favorable metabolic stability.

NLRP3 inflammasome [3] = biological target: T1, NLRP3 inflammasome (Homo sapiens, UniProt Q96P20); assay: NLRP3 inflammasome activation assay in PBMCs (LPS priming, nigericin), IL-1β by ELISA; assay type: cell-based; set-up: Human peripheral blood mononuclear cells (PBMCs); host or cells: primary human PBMCs from healthy donors; details: for IC50: LPS, nigericin, read-out: PBMC IL-1β IC50
Protocol: (§2) Some of the following assays were used to determine the inhibitory activity of the compounds on the NLRP3 inflammasome using a common inflammasome activation stimuli-nigericin.
Human peripheral blood mononuclear cells (PBMCs), consisting of lymphocytes (T, B and NK cells), monocytes and dendritic cells, were freshly isolated from human peripheral blood from healthy donors. Cells were obtained through an IRB approved donor program by iXCells Biotechnologies where all the donors were tested for bacterial and viral infections. Cells were purified from peripheral blood using ficoll gradient centrifugation.
(§3) Cells were then stimulated with 10 uM Nigericin (Sigma Aldrich; InvivoGen) for 1.5 h. Plates were centrifuged at 1,500 rpm for 3 minutes to pellet cells and supernatant was transferred into new plates for subsequent experiments.
as §1

NLRP3 inflammasome [4] = biological target: T1, NLRP3 inflammasome; assay: NLRP3 inflammasome activation assay in Kupffer cells (LPS priming, nigericin), IL-1β/IL-18 by ELISA; assay type: cell-based; details: KCs; LPS, nigericin; read-out: KC IL-1β IC50
Description: as §2
Human Kupffer cells (KCs), specialized liver macrophages residing in […], were obtained by gradient isolation from liver specimens harvested post-mortem by Samsara Sciences. Cells were obtained through an IRB approved donor program by Samsara Sciences and all donors tested negative for bacterial and viral infections.
as §3, §1

IL-1β = assay: LPS/ATP challenge model in C57BL/6 mice, IL-1β in peritoneal lavage; assay type: in vivo; details: 3.5 hours post dose
Protocol: The purpose of this study was to determine the effects of Compounds 1 and 2 treatment on cytokine production after LPS/ATP injection in female C57BL/6 mice.
On Day −1 mice were weighed and assigned to groups per Table 2 (see below) in a balanced manner to achieve similar average weight across the groups at the start of the study.
All mice received a single dose of treatment or vehicle, at hour minus 1.
At hour 0, all mice received 1 μg of lipopolysaccharide, ultra pure (LPS, InvivoGen, San Diego, Calif.) in 0.5 ml PBS, intraperitoneally.
At hour 2 (two hours after LPS injection), all mice were injected intraperitoneally with 0.5 ml of 80 mM ATP disodium salt (Sigma, pH adjusted to 7.2 before injection).
At hour 2.5 (30 minutes after ATP injection and 3.5 hours after compound dosing), blood from all mice was collected via retro-orbital bleeding into K2 EDTA tubes and plasma was prepared and stored at […]. Samples were shipped to the customer or vendor of customers choosing within 7 days of completing the study.
Immediately after the collection of blood, each mouse was euthanized, the peritoneal cavity was lavaged with 3 ml of ice-cold PBS containing 25 U/ml heparin sodium salt, cocktail of protease inhibitors (Complete™ ULTRA Tablets, Sigma, Roche), and 10% FBS. Approximately 1 ml of the lavage was collected, spun down to remove cells and the supernatant stored at −80° C.
Compound powders were stored at 4° C. All compounds were prepared fresh. Compounds were weighed out and first ground with a mortar and pestle, then ground with a small amount of vehicle. The mortar was then repeatedly rinsed with vehicle to remove all material and achieve the correct concentration. The final solution was vortexed to create a homogeneous mixture
Mouse IL-1β and TNFα concentrations in peritoneal lavage samples were determined using Becton Dickinson (Franklin Lakes, N.J.) CBA analysis kit, according to manufacturer's protocol. A single analysis was performed on each sample.
Concentrations of cytokines were compared using Student t-test.

pro-caspase-1 = assay: Inhibition of Caspase1 activation in bone marrow derived macrophages (Western Blot); assay type: cell-based, mouse; details: 10 μM; BMDMs, LPS 100 ng/ml 3 hours, nigericin 10 μM 90 minutes
[5] = LPS and nigericin stimulated cells, CellTiter-Glo

T1 sequence (Q96P20 whole entry): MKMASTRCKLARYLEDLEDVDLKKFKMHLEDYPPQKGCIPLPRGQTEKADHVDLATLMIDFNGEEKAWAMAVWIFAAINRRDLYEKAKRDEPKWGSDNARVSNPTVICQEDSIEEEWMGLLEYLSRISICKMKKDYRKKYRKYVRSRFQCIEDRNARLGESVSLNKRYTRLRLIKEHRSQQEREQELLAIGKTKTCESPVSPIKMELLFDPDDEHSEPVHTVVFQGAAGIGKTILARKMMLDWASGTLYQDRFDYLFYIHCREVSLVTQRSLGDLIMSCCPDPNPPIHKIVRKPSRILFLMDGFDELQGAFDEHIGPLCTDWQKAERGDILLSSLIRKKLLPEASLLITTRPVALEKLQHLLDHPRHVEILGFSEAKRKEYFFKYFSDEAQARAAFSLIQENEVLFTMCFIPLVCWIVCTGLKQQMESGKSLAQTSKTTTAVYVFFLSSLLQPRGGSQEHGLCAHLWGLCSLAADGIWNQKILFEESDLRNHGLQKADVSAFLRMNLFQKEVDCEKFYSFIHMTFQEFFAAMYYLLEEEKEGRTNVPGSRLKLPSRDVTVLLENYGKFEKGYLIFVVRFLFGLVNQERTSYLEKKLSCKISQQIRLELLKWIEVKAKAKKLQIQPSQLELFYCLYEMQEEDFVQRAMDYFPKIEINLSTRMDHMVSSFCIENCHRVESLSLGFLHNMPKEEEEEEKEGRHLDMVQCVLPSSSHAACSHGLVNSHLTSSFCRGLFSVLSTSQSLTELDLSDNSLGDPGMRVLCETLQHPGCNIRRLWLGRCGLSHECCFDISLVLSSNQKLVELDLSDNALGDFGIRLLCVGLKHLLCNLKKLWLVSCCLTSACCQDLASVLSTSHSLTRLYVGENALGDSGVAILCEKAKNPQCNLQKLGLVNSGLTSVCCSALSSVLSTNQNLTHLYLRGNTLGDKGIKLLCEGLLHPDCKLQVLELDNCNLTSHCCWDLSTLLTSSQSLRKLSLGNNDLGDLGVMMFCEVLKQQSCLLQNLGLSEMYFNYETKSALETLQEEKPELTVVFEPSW

SMILES	TNFα IC50 (PBMC or KC) (TNFα)	Human Microsomal Stability (Eh) [2]	IC50 [1, 5]	IC50 (NLRP3 inflammasome [3])	IC50 (NLRP3 inflammasome [4])	other results
O=C(Nc1c2c(cc3c1CCC3)CCC2)NS(=O)(=O)c1cnn2c1OCCC2	No Curve	0.3				IC50 [1]: < 100 nM
Cc1c2c(c(NC(=O)NS(=O)(=O)c3cnn4c3OCCC4)c3c1CCC3)CCC2	No Curve		100 to 1000 nM	100 to 1000 nM		
CO[C@H]1COc2c(S(=O)(=O)NC(=O)Nc3c4c(cc5c3CCC5)CCC4)cnn2C1	No Curve	0.3	< 100 nM	< 100 nM	< 100 nM	
CO[C@@H]1COc2c(S(=O)(=O)NC(=O)Nc3c4c(cc5c3CCC5)CCC4)cnn2C1	No Curve	0.2	100 to 1000 nM	100 to 1000 nM	100 to 1000 nM	
O=C(Nc1c2c(cc3c1CCC3)CCC2)NS(=O)(=O)c1cc2n(n1)CCOC2	No Curve		100 to 1000 nM	100 to 1000 nM		
O=C(Nc1c2c(cc3c1CCC3)CCC2)NS(=O)(=O)c1cnn2c1OC[C@H](O)C2	No Curve	<0.1	< 100 nM	< 100 nM	< 100 nM	
C[C@H]1COc2c(S(=O)(=O)NC(=O)Nc3c4c(cc5c3CCC5)CCC4)cnn2C1	No Curve		< 100 nM	< 100 nM	< 100 nM	
CCO[C@H]1COc2c(S(=O)(=O)NC(=O)Nc3c4c(cc5c3CCC5)CCC4)cnn2C1	No Curve	0.4	< 100 nM	< 100 nM	< 100 nM	
O=S(=O)(NC(=S)Nc1c2c(cc3c1CCC3)CCC2)c1cnn2c1OCCC2 [Compound 3, N-((1,2,3,5,6,7-hexahydro-s-indacen-4-yl)carbamothioyl)-6,7-dihydro-5H-pyrazolo[5,1-b][1,3]oxazine-3-sulfonamide]						% Decrease of IL-1β vs. Vehicle (IL-1β; single oral dose 0.25 mg/kg): 53.0%; Mean (IL-1β) (IL-1β; single oral dose 0.25 mg/kg): 781.8 pg/mL; % Decrease of IL-1β vs. Vehicle (IL-1β; single oral dose 1 mg/kg): 96.5%; Mean (IL-1β) (IL-1β; single oral dose 1 mg/kg): 57.7 pg/mL; % Decrease of IL-1β vs. Vehicle (IL-1β; single oral dose 2.5 mg/kg): 99.1%; Mean (IL-1β) (IL-1β; single oral dose 2.5 mg/kg): 14.6 pg/mL; IL-1β production in PBMCs (FIG. 1) (NLRP3 inflammasome [3]): inhibition
O=C(Nc1c2c(cc3c1CCC3)CCC2)NS(=O)(=O)c1cnn2c1CCCC2 [Compound 4, N-((1,2,3,5,6,7-hexahydro-s-indacen-4-yl)carbamoyl)-4,5,6,7-tetrahydropyrazolo[1,5-a]pyridine-3-sulfonamide]						activation of pro-caspase-1 (p45 and p10 bands, Western Blot) (pro-caspase-1): blocked; also recorded: inhibition of activation
CC1(C)COc2c(S(=O)(=O)NC(=O)Nc3c4c(cc5c3CCC5)CCC4)cnn2C1 [drawing 513]	No Curve	0.5	< 100 nM	< 100 nM	< 100 nM	
O=C(Nc1c2c(cc3c1CCC3)CCC2)NS(=O)(=O)c1cnn2c1OCC(O)C2 (centres unmarked) [drawing 514]	No Curve	0.1	< 100 nM	< 100 nM	< 100 nM	
COC1COc2c(S(=O)(=O)NC(=O)Nc3c4c(cc5c3CCC5)CCC4)cnn2C1 (centres unmarked) [drawing 518]	No Curve		< 100 nM	< 100 nM	< 100 nM	
CC1CCn2ncc(S(=O)(=O)NC(=O)Nc3c4c(cc5c3CCC5)CCC4)c2O1 (centres unmarked) [drawing 519]	No Curve			100 to 1000 nM	< 100 nM	
O=C(Nc1c2c(cc3c1CCC3)CCC2)NS(=O)(=O)c1cnn2c1OCC1(CC1)C2 [drawing 528]		0.6	< 100 nM	< 100 nM	< 100 nM	
CN(C)[C@H]1COc2c(S(=O)(=O)NC(=O)Nc3c4c(cc5c3CCC5)CCC4)cnn2C1 [drawing 541]	No Curve	0.2				IC50 [1]: < 100 nM
CN[C@H]1COc2c(S(=O)(=O)NC(=O)Nc3c4c(cc5c3CCC5)CCC4)cnn2C1 [drawing 566]	No Curve	<0.1				IC50 [1]: < 100 nM
